Results published in patent publication US11919898B2, “Crystal form of azaindole derivative and use thereof” (Wuxi Life Fountain Biotech Co., Ltd, priority 2020, dated 2024).
Values joined by “and” are separate entries in the source; they are usually repeats but may differ in a detail not shown here. Equal values may be shown once.

How the values were obtained:
[1] = Stability comparison of crystal form A and crystal form B (slurry in ethanol, XRPD); type: physicochemical; conditions: stirred in ethanol for 16 hrs
From the text: 35 g of the crystal form B of the compound of Formula (II) was weighed, added to ethanol, and stirred for 16 hrs.

[2] = Hygroscopicity test by dynamic vapor sorption (DVS); type: physicochemical; conditions: for ΔW, hygroscopic weight gain: 25° C. and 80% RH, DVS; for Classification of hygroscopicity: 25° C./80% RH
Method: Dynamic Vapor Sorption (DVS) of the Present Invention • Instrument model: SMS DVS Intrinsic Dynamic Vapor Sorption Analyzer • Test method: A sample (10-30 mg) is tested in a DVS sample pan. Detailed DVS Parameters: • Temperature: 25° C. • Equilibration: dm/dt=0.002%/min (Minimum: 10 min, Maximum: 180 min) • RH (%) test interval: 10 (0-90%), 5 (90-95%) • RH (%) test interval range: 0-95-0 Hygroscopicity evaluations are classified as follows: [table] Note: AW % represents the hygroscopic weight gain of the test product at 25° C./80% RH. Experimental Method: • 10-30 mg of the crystal form A of the compound of Formula (II) was placed in the DVS sample pan and tested. Experimental Method: • 10-30 mg of the crystal form G of the compound of Formula (III) was placed in the DVS sample pan and tested. Experimental Method: • 10-30 mg of the crystal form J of the compound of Formula (IV) was placed in the DVS sample pan and tested.

SMILES: COc1cc(OC)c(F)c(Cc2c[nH]c3ncc(-c4cnn(CCO)c4)cc23)c1F.Cl
- Crystal form conversion (XRPD) [1]: can be converted into the crystal form A of the compound of Formula (II)

SMILES: COc1cc(OC)c(F)c(Cc2c[nH]c3ncc(-c4cnn(CCO)c4)cc23)c1F
- ΔW, hygroscopic weight gain [2]: 3.829% and 3.928%
- Classification of hygroscopicity [2]: hygroscopic

SMILES: COc1cc(OC)c(F)c(Cc2c[nH]c3ncc(-c4cnn(CCO)c4)cc23)c1F.Cc1ccc(S(=O)(=O)O)cc1
- ΔW, hygroscopic weight gain [2]: 6.077%
- Classification of hygroscopicity [2]: hygroscopic
